Laboratory results published in patent publication US12459951B2, “Compounds that interact with RAS superfamily proteins for treatment of cancers, inflammatory diseases, rasopathies, and fibrotic disease” (SHY Therapeutics, LLC, priority 2022, dated 2025).

What was measured:
[1] = tested on: Smad2/Smad3 phosphorylation; experiment: Phospho-Smad2/3 Inhibition Assay (western blot), Panc-1; assay type: cell-based, human; conditions: at 10 μM, Panc-1 pancreatic cancer cell line; starred symbols = activation
Procedure, shortened: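 Western blotting of lysates (15-50 μg protein) read phosphorylation of Smad2 Ser465/467 and Smad3 Ser423/425. Before lysis, Panc-1 cells got 1 h of 10 ng/ml TGF-b1 following 3 h compound exposure at 37° C (10 μM final, or serial dilutions for IC50, 0.3% DMSO) after overnight 0.5% FBS starvation.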

Erk1/2 phosphorylation = experiment: Erk1/2 Phosphorylation Assay (western blot), Panc-1; assay type: cell-based, human; conditions: at 10 μM, * = activation
Procedure, shortened: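 Phospho-Erk1/2 (Thr202/Tyr204) was detected by western blot in lysates of Panc-1 cells (KRas G12D). These had 6 h, 37° C exposure to 10 μM compound or a dilution series for IC50, in 0.3% DMSO. Cells were either starved overnight in 0.5% FBS with a 15-min 1.5 ng/ml EGF pulse, or kept unstimulated in 10% FBS.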

| Compound | % inh of Smad2/3 phosphorylation in Panc-1 [1] | % inh of Erk1/2 phosphorylation in Panc-1 (Erk1/2 phosphorylation) |
| --- | --- | --- |
| CCOc1cc(Nc2nc(-c3nccn3C)nn3cc(-c4ccn(C)n4)c(C)c23)n[nH]1 [Compound 260, N-(5-Ethoxy-1H-pyrazol-3-yl)-5-methyl-2-(1-methyl-1H-imidazol-2-yl)-6-(1-methyl-1H-pyrazol-3-yl)pyrrolo[2,1-f][1,2,4]triazin-4-amine] | A* (A* = 1-25% activation) | A* (1-25% activation) |
| Cc1c(-c2ccn(C)n2)cn2nc(-c3nccn3C)nc(-n3[nH]c(N)cc3=O)c12 [Compound 261, 5-Amino-2-(5-methyl-2-(1-methyl-1H-imidazol-2-yl)-6-(1-methyl-1H-pyrazol-3-yl)pyrrolo[2,1-f][1,2,4]triazin-4-yl)-1,2-dihydro-3H-pyrazol-3-one] | B* (B* = 26-45% activation) | B (26-49% inhibition) |
| Cc1c(-c2ccn(C)n2)cn2nc(-c3nccn3C)nc(Oc3cc(N)[nH]n3)c12 [Compound 262, 3-((5-Methyl-2-(1-methyl-1H-imidazol-2-yl)-6-(1-methyl-1H-pyrazol-3-yl)pyrrolo[2,1-f][1,2,4]triazin-4-yl)oxy)-1H-pyrazol-5-amine] | B* (B* = 26-45% activation) | A (1-25% inhibition) |
| Cc1c(-c2ccn(C)n2)cn2nc(-c3nccn3C)nc(Nc3cc(-c4ccccc4)[nH]n3)c12 [Compound 263, 5-Methyl-2-(1-methyl-1H-imidazol-2-yl)-6-(1-methyl-1H-pyrazol-3-yl)-N-(5-phenyl-1H-pyrazol-3-yl)pyrrolo[2,1-f][1,2,4]triazin-4-amine] | C (C = 46-75% inhibition) | A (1-25% inhibition) |
| Cc1c(-c2ccn(C)n2)cn2nc(-c3nccn3C)nc(Nc3cc(-c4cccnc4)[nH]n3)c12 [Compound 264, 5-Methyl-2-(1-methyl-1H-imidazol-2-yl)-6-(1-methyl-1H-pyrazol-3-yl)-N-(5-(pyridin-3-yl)-1H-pyrazol-3-yl)pyrrolo[2,1-f][1,2,4]triazin-4-amine] | A (A = 1-25% inhibition) | B* (26-49% activation) |
| Cc1c(-c2ccn(C)n2)cn2nc(-c3nccn3C)nc(Nc3cc(-c4ccccn4)[nH]n3)c12 [Compound 265, 5-Methyl-2-(1-methyl-1H-imidazol-2-yl)-6-(1-methyl-1H-pyrazol-3-yl)-N-(5-(pyridin-2-yl)-1H-pyrazol-3-yl)pyrrolo[2,1-f][1,2,4]triazin-4-amine] | A (A = 1-25% inhibition) | A* (1-25% activation) |
| Cc1c(-c2ccn(C)n2)cn2nc(-c3nccn3C)nc(Nc3cc(-c4ccncc4)[nH]n3)c12 [Compound 266, 5-Methyl-2-(1-methyl-1H-imidazol-2-yl)-6-(1-methyl-1H-pyrazol-3-yl)-N-(5-(pyridin-4-yl)-1H-pyrazol-3-yl)pyrrolo[2,1-f][1,2,4]triazin-4-amine] | D* (D* = 76-100% activation) | D (85-100% inhibition) |
| Cc1[nH]nc(Nc2nc(-c3nccn3C)nn3cc(-c4ccn(C)n4)c(C)c23)c1C [Compound 267, N-(4,5-Dimethyl-1H-pyrazol-3-yl)-5-methyl-2-(1-methyl-1H-imidazol-2-yl)-6-(1-methyl-1H-pyrazol-3-yl)pyrrolo[2,1-f][1,2,4]triazin-4-amine] | B (B = 26-45% inhibition) | D* (85-100% activation) |
| Cc1c(-c2ccn(C)n2)cn2nc(-c3nccn3C)nc(Nc3cc(C(C)C)[nH]n3)c12 [Compound 268, N-(5-Isopropyl-1H-pyrazol-3-yl)-5-methyl-2-(1-methyl-1H-imidazol-2-yl)-6-(1-methyl-1H-pyrazol-3-yl)pyrrolo[2,1-f][1,2,4]triazin-4-amine] | C (C = 46-75% inhibition) | D* (85-100% activation) |
| COc1cccc(-c2cn3nc(-c4nccn4C)nc(N[C@H]4C[C@@H](OC)C4)c3c2-c2ccccc2)c1C [Compound 269, 6-(3-Methoxy-2-methylphenyl)-N-((1s,3s)-3-methoxycyclobutyl)-2-(1-methyl-1H-imidazol-2-yl)-5-phenylpyrrolo[2,1-f][1,2,4]triazin-4-amine] | D (D = 76-100% inhibition) | D (85-100% inhibition) |
| COc1ccc(F)c(-c2cn3nc(-c4nccn4C)nc(N[C@H]4C[C@H](OC)C4)c3c2-c2ccccc2)c1F [Compound 273, 6-(2,6-Difluoro-3-methoxyphenyl)-N-((1r,3r)-3-methoxycyclobutyl)-2-(1-methyl-1H-imidazol-2-yl)-5-phenylpyrrolo[2,1-f][1,2,4]triazin-4-amine] | D (D = 76-100% inhibition) | D (85-100% inhibition) |
| COc1cccc(-c2cn3nc(-c4nccn4C)nc(N[C@H]4C[C@H](OC)C4)c3c2-c2ccccn2)c1C [Compound 274, 6-(3-Methoxy-2-methylphenyl)-N-((1r,3r)-3-methoxycyclobutyl)-2-(1-methyl-1H-imidazol-2-yl)-5-(pyridin-2-yl)pyrrolo[2,1-f][1,2,4]triazin-4-amine] | D (D = 76-100% inhibition) | D (85-100% inhibition) |
| CO[C@H]1C[C@H](Nc2nc(-c3nccn3C)nn3cc(-c4ccn(C)n4)c(C4CC4)c23)C1 [Compound 275, 5-Cyclopropyl-N-((1r,3r)-3-methoxycyclobutyl)-2-(1-methyl-1H-imidazol-2-yl)-6-(1-methyl-1H-pyrazol-3-yl)pyrrolo[2,1-f][1,2,4]triazin-4-amine] | B (B = 26-45% inhibition) | 0 (0% inhibition) |
| COc1ccnc(Nc2nc(-c3nccn3C)nn3cc(-c4ccn(C)n4)c(C4CC4)c23)c1 [Compound 276, 5-Cyclopropyl-N-(4-methoxypyridin-2-yl)-2-(1-methyl-1H-imidazol-2-yl)-6-(1-methyl-1H-pyrazol-3-yl)pyrrolo[2,1-f][1,2,4]triazin-4-amine] | B (B = 26-45% inhibition) | D* (85-100% activation) |
